Source: publication PMC8621570, “Mechanistic Studies of Antibiotic Adjuvants Reducing Kidney’s Bacterial Loads upon Systemic Monotherapy” (Pharmaceutics, 2021)

Columns and labels:
[1] = test system: Pseudomonas aeruginosa 27853; experiment: Sensitization to rifampin, checkerboard method; format: cell-based; settings: adjuvant at 8 µg/mL (10 µM for C14(ω5)OOc10O), Pa 27853, LB
Procedure: (§1) Bacterial sensitization: Sensitization to antibiotics was determined using the checkerboard method in presence of sub-MIC OAC (2.5, 5, and 10 μM), as described. The synergistic effect of the combinations was expressed in terms of the Sensitization Factor (SF), where SF = (MIC antibiotic alone)/(MIC antibiotic upon combination). Data were obtained from three independent assays performed in duplicate.
(§2) Figure 4 Hydrophobicity dependence of antibiotics potentiation by lipopeptide analogs. Sensitization of GNB to rifampin and erythromycin (upper and lower panel, respectively) was assessed by MIC experiments performed in LB medium, in presence or absence of an OAC analog whose A2 position was gradually shortened (from c10 to c6). Pseudomonas aeruginosa 27853 (Pa, blue), Klebsiella pneumoniae 1287 (Kp, green), Escherichia coli 25922 (Ec, red), and Acinetobacter baumannii 19606 (Ab, black).

Escherichia coli 25922 = experiment: Sensitization to rifampin, checkerboard method; format: cell-based; settings: adjuvant at 8 µg/mL (10 µM for C14(ω5)OOc10O), Ec 25922, LB
Procedure: as §1, §2

Klebsiella pneumoniae = experiment: Sensitization to rifampin, checkerboard method; format: cell-based; settings: adjuvant at 8 µg/mL (10 µM for C14(ω5)OOc10O), Kp, LB
Procedure: as §1, §2

[2] = test system: Acinetobacter baumannii 19606; experiment: Sensitization to rifampin, checkerboard method; format: cell-based; settings: adjuvant at 8 µg/mL (10 µM for C14(ω5)OOc10O), Ab 19606, LB
Procedure: as §1, §2

E. coli 25922 = experiment: Thigh infection model; format: in vivo, mouse; settings: 12.5 mg/kg S.C at 1 and 3 h post-infection, CFU/thigh at 24 h, 8 mice per group
Procedure: Animals: All animal studies were performed using male ICR mice (25 ± 2 gr). The Technion Animal Care and Use committee approved all procedures, care, and handling of animals. Ethics approval codes: IL0800519, IL0640421, IL0550618, IL1811217.
For efficacy assessments, three infection models were used including one with topical treatment and two with systemic treatment. • Excisional skin wound infection model: mice were anesthetized by intraperitoneal administration of a mixture of ketamine 100 mg/kg and xylazine 5 mg/kg in PBS and their backs shaved with electric clippers. The following day mice were similarly anesthetized and were administrated (S.C) 0.05 mg/kg buprenorphine (for pain relief). A 5 mm diameter piece of skin was removed from the middle of the shaved back, with sterile biopsy punch resulting in a full-thickness injury. A total of 20 µL of a mid-logarithmic culture, containing 5 × 10^6 CFU P. aeruginosa 27853 were applied on the wound. […] The number of viable bacteria was determined after overnight incubation at 37 °C. […] The number of viable bacteria was determined after overnight incubation at 37 °C. […] The number of viable bacteria was determined after overnight incubation at 37 °C. […]

12 GNB strains = format: cell-based; settings: OD measurements, mean of 12 GNB strains
Procedure: Bacteria:Escherichia coli strains: 25922 and 35218 (ATCC, Manassas, VA, USA), 14182 (clinical isolate), Ag100 and Ag100A [34] (ΔacrAB) are two K-12 isogenic mutantsand the engineered mutant ML-35p. Additional ESKAPE species tested: Klebsiella pneumoniae strains 1287 and 224 (clinical isolates), Acinetobacter baumannii ATCC strain 19606, Pseudomonas aeruginosa ATCC strains 9027 and 27853. Bacteria were grown in Luria–Bertani (LB) broth (0.5% NaCl, 0.5% yeast extract, 1% tryptone, pH = 7), except for E. coli ML-35p that was grown in tryptic-soy broth.
Peptide self-assembly was determined by static light scattering measurements as described. Hemolysis was determined by measuring hemoglobin leakage from washed human RBCs, as described. Minimal inhibitory concentration (MIC) was determined using the microdilution assay, as described. Bactericidal kinetics were determined by mixing bacteria with rifampin, OAC, or their combinations, as described. Data were obtained from three independent assays performed in duplicate.

Structure (SMILES): CCCCC=CCCCCCCCC(=O)N[C@@H](CCCN)C(=O)N[C@@H](CCCN)C(=O)NCCCCCCCCCC(=O)N[C@@H](CCCN)C(N)=O [C14(ω5)OOc10O]
- Sensitization factor (rifampin MIC alone)/(rifampin MIC in combination) [1]: 32,000
- Sensitization factor (rifampin MIC alone)/(rifampin MIC in combination) (Escherichia coli 25922): 32,000
- Sensitization factor (rifampin MIC alone)/(rifampin MIC in combination) (Klebsiella pneumoniae): 64,000
- Sensitization factor (rifampin MIC alone)/(rifampin MIC in combination) [2]: 4000
- Effect on thigh bacterial loads (E. coli 25922): unable to reduce bacterial loads
- MIC, LB medium (12 GNB strains): > 50 µM
